Biological target: T1, MALT1 (Homo sapiens, UniProt Q9UDY8)
T1 construct: GST-MALT1 (aa 325–760)
T1 sequence (Q9UDY8 325-760): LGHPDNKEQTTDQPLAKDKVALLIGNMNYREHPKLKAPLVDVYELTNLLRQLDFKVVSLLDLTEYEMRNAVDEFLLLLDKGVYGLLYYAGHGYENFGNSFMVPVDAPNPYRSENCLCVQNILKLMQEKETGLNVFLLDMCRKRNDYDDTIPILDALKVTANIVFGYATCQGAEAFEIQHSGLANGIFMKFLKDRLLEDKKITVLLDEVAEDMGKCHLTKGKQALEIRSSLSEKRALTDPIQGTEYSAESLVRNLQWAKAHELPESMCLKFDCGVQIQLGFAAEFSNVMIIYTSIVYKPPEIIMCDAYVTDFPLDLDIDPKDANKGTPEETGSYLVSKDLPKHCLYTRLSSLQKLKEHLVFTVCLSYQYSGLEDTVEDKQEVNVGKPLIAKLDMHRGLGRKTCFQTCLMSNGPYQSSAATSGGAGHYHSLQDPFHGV
Experiment: recombinant GST-MALT1 protease assay with fluorescence substrate Ac-LRSR-AMC
Type: biochemical

Which IC50 does the source give for `COCCOc1nc(-c2ccc(Cl)c(Cl)c2)n(-c2ccc(NC(=O)CCl)cc2)n1` [MI-2] here?
Its IC50 is 2.1 µM.

— article PMC12107143, “MALT1 inhibitor MI-2 induces ferroptosis by direct targeting of GPX4” (Proceedings of the National Academy of Sciences of the …, 2025)
